# In patent US20240262806A1, “INHIBITORS OF NLRP3” (PTC THERAPEUTICS, INC., priority 2021, published 2024):
# Counter-ions that a name gives are not always drawn. Like-named read-outs stand apart in the source and are kept apart here.
# Tested on: NLRP3 inflammasome
# Test: IL-1β Secretion Assay (NLRP3-dependent IL-1β secretion in PMA-differentiated THP-1 cells, nigericin activation, HTRF)
# Format: cell-based
# Conditions: 100 ng/mL PMA 24 h, compound 20 h, 2.5 μM Nigericin 3 h, read-out: IC50 IL-1β Inhibition
# Procedure, shortened: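 IL-1β release, quantified by HTRF after nigericin activation of the NLRP3 inflammasome, was the read-out. A logistic fit of percent inhibition gave IC50.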
# [1] = Homo sapiens, THP-1, THP-1 cells
SMILES,IC50 [1],IC50 (THP-1 cells)
Cc1cc2c(-c3c(O)cc(C4CC4)cc3F)nnc(N[C@@H]3CCCN(C)C3)n2n1 [Compound I-429],< 0.001 µM,
OCCN1CCC[C@@H](Nc2nnc(-c3ccc(C(F)(F)F)cc3C(F)(F)F)c3cccn23)C1 [Compound I-491],0.001 to 0.01 µM,
"Oc1cc(Cl)ccc1-c1nnc(N[C@@H]2CCCOC2)n2cncc12 [Compound I-518, (R)-5-Chloro-2-(4-((tetrahydro-2H-pyran-3-yl)amino)imidazo[1,5-d][1,2,4]triazin-1-yl)phenol]",0.001 to 0.01 µM,
Oc1cc(Br)ccc1-c1nnc(N[C@@H]2CCCN(CC(F)F)C2)n2nccc12 [Compound I-548],0.001 to 0.01 µM,
Oc1cc(C(F)(F)F)ccc1-c1nnc(NCC2CCN2)c2ccccc12 (centres unmarked) [Compound I-150],0.01 to 0.1 µM,
Cc1cc(O)c(-c2nnc(N[C@@H]3CCCN(C)C3)c3cnccc23)cc1F [Compound I-88],< 0.001 µM,
C[C@]1(O)C[C@@H](Nc2nnc(-c3ccc(Br)cc3O)c3cncn23)C1 [Compound I-627],0.001 to 0.01 µM,
CN1CCC[C@@H](Nc2nnc(-c3ccc(C(F)(F)F)cc3NS(C)(=O)=O)c3ccccc23)C1 [Compound I-124],0.001 to 0.01 µM,
CN1CCC[C@@H](Nc2nnc(-c3ccc(-n4nccn4)cc3O)c3ccncc23)C1 [Compound I-137],< 0.001 µM,
COc1ccc(-c2nnc(N[C@@H]3CCCN(C)C3)n3c(C)ncc23)c(O)c1 [Compound I-411],0.01 to 0.1 µM,
CN1CCN(c2nnc(-c3ccc(C(F)(F)F)cc3O)c3cnccc23)CC1 [Compound I-116],0.1 to 0.3 µM,
"Cc1noc2c(-c3ccc(C(F)(F)F)cc3O)nnc(N[C@@H]3CCCN(C)C3)c12 [Compound I-255, 2-[3-methyl-4-[[(3R)-1-methyl-3-piperidyl]amino]isoxazolo[4,5-d]pyridazin-7-yl]-5-(trifluoromethyl)phenol]",0.001 to 0.01 µM,
Oc1cc(Cl)cc(F)c1-c1nnc(NC2CCCOC2)n2cccc12 (centres unmarked) [Compound I-608],0.01 to 0.1 µM,
Cc1cc(O)c(-c2nnc(NCC(C)(C)O)n3cccc23)c(F)c1 [Compound I-539],0.001 to 0.01 µM,
CCN1CCC[C@H]1CNc1nnc(-c2c(O)cc(C)cc2F)c2cccn12 [Compound I-582],0.001 to 0.01 µM,
CN1C[C@H](F)C[C@@H](Nc2nnc(-c3ccc(OC(F)(F)F)cc3O)c3cccn23)C1 [Compound I-409],0.001 to 0.01 µM,
CN1CCC[C@@H](Nc2nnc(-c3ccc(Cl)cc3O)c3ccncc23)C1 [Compound I-60],< 0.001 µM,
Cc1cc(C(F)(F)F)cc(O)c1-c1nnc(N[C@@H]2CCCN(C)C2)n2cccc12 [Compound I-431],< 0.001 µM,
Oc1cc(Cl)cc(F)c1-c1nnc(NCC2CCCO2)n2cccc12 (centres unmarked) [Compound I-621],0.01 to 0.1 µM,
CN1C[C@@H](F)C[C@H](Nc2nnc(-c3ccc(C(F)(F)F)cc3O)c3ccncc23)C1 [Compound I-278],0.01 to 0.1 µM,
CCc1cc(O)c(-c2nnc(N[C@@H]3CCCN(C)C3)n3cccc23)c(F)c1 [Compound I-563],< 0.001 µM,
"Cc1ccc(-c2nnc(N[C@@H]3CCCN(C)C3)c3cnccc23)c(O)c1 [Compound I-71, 5-Methyl-2-[4-[[(3R)-1-methyl-3-piperidyl]amino]pyrido[3,4-d]pyridazin-1-yl]phenol]",< 0.001 µM,
"Cc1ncc2c(-c3ccc(C(F)(F)F)cc3O)nnc(N[C@@H]3CCCN(C)C3)n12 [Compound I-543, (R)-2-(6-Methyl-4-((1-methylpiperidin-3-yl)amino)imidazo[1,5-d][1,2,4]triazin-1-yl)-5-(trifluoromethyl)phenol]",< 0.001 µM,

SMILES,IC50 [1],IC50 (THP-1 cells)
CN1CCC[C@@H](Nc2nnc(-c3ccc(Cl)cc3OC(F)F)c3ccccc23)C1 [Compound I-133],0.001 to 0.01 µM,
CN1CCC[C@@H](Nc2nnc(-c3ccc(-c4ncccn4)cc3O)c3ccncc23)C1 [Compound I-200],0.001 to 0.01 µM,
"CN1CCCC(Cc2nnc(-c3ccc(C(F)(F)F)cc3O)c3cnccc23)C1 (centres unmarked) [Compound I-118, 2-(1-((1-Methylpiperidin-3-yl)methyl)pyrido[3,4-d]pyridazin-4-yl)-5-(trifluoromethyl)phenol]",0.001 to 0.01 µM,
Cc1ccc(-c2nnc(N[C@@H]3CCCN(C)C3)c3cnccc23)c(OC(F)F)c1 [Compound I-134],0.001 to 0.01 µM,
C[C@H](O)CNc1nnc(-c2c(O)cc(Cl)cc2F)c2cccn12 [Compound I-577],0.01 to 0.1 µM,
CN1CCC[C@@H](Nc2nnc(-c3ccc(C(F)(F)F)cc3C(N)=O)c3ccncc23)C1 [Compound I-182],0.01 to 0.1 µM,
CCN1C[C@H](F)C[C@@H](Nc2nnc(-c3ccc(OC(F)(F)F)cc3O)c3c(F)ccn23)C1 [Compound I-598],0.001 to 0.01 µM,
CN1CCC[C@@H](Nc2nnc(-c3ccc(C#N)cc3OC(F)F)c3ccncc23)C1 [Compound I-167],0.01 to 0.1 µM,
Cc1cc(C(F)(F)F)cc(O)c1-c1nnc(N[C@@H]2CCCN(C)C2)c2cnccc12 [Compound I-103],< 0.001 µM,
"CN1CCC[C@@H](Nc2nnc(-c3ccc(-n4nccn4)cc3O)c3ccccc23)C1 [Compound I-10, (R)-2-(4-((1-methylpiperidin-3-yl)amino)phthalazin-1-yl)-5-(2H-1,2,3-triazol-2-yl)phenol]",0.001 to 0.01 µM,
COc1ccc(-c2nnc(N[C@@H]3CCCN(C)C3)c3cnccc23)c(OC(F)F)c1 [Compound I-171],< 0.001 µM,
CCN1CCC[C@@H](Nc2nnc(-c3ccc(C(F)(F)F)cc3OC(F)F)c3cccn23)C1 [Compound I-335],< 0.001 µM,
CN1CCC[C@@H](Nc2nnc(-c3ccc(C4=CCOCC4)cc3O)c3ccccc23)C1 [Compound I-56],0.01 to 0.1 µM,
CN1CCC[C@@H](Nc2nnc(-c3ccc(OC(F)(F)F)cc3O)c3cccn23)C1 [Compound I-366],0.001 to 0.01 µM,
CCN1CCC[C@@H](Nc2nnc(-c3c(O)cc(C4CC4)cc3F)c3c(F)ccn23)C1 [Compound I-602],< 0.001 µM,
Oc1cc(C(F)(F)F)ccc1-c1nnc(N[C@H]2CCCOC2)c2cnccc12 [Compound I-310],0.001 to 0.01 µM,
CCN1CCC[C@@H](Nc2nnc(-c3ccc(C4CC4)cc3O)c3c(F)ccn23)C1 [Compound I-600],< 0.001 µM,
Oc1cc(C(F)(F)F)ccc1-c1nnc(N[C@@H]2CCCCNC2)c2cnccc12 [Compound I-261],0.001 to 0.01 µM,
CN1CC[C@@H](Nc2nnc(-c3ccc(C(F)(F)F)cc3O)c3c2CCCC3)C1 [Compound I-26],0.01 to 0.1 µM,
CN1CCC[C@@H](Nc2nnc(-c3ccc(C(F)(F)F)cc3-c3cn[nH]c3)c3ccncc23)C1 [Compound I-193],0.01 to 0.1 µM,
FC(F)Oc1cc(C(F)(F)F)ccc1-c1nnc(N[C@@H]2CCCN(C3CCOCC3)C2)n2cccc12 [Compound I-326],< 0.001 µM,
Cc1ccc(-c2nnc(N[C@@H]3CCCN(C)C3)n3cccc23)c(C(F)(F)F)c1 [Compound I-533],0.001 to 0.01 µM,
CN1CC[C@@H](F)[C@@H](Nc2nnc(-c3ccc(C(F)(F)F)cc3O)c3ccncc23)C1 [Compound I-315],< 0.001 µM,

SMILES,IC50 [1],IC50 (THP-1 cells)
OCCN1CCC[C@@H](Nc2nnc(-c3ccc(OC(F)(F)F)cc3O)c3cccn23)C1 [Compound I-373],0.001 to 0.01 µM,
CC1(O)CCCC(Nc2nnc(-c3ccc(C(F)(F)F)cc3O)c3cccn23)C1 (centres unmarked) [Compound I-450],0.01 to 0.1 µM,
"COc1cc(C(F)(F)F)ccc1-c1nnc(N[C@@H]2CCCN(C)C2)n2ccnc12 [Compound I-386, 8-[2-Methoxy-4-(trifluoromethyl)phenyl]-N-[(3R)-1-methyl-3-piperidyl]imidazo[1,2-d][1,2,4]triazin-5-amine formic acid salt]",0.1 to 0.3 µM,
CN1CCC[C@@H](Nc2nnc(-c3ccc(Br)cc3OCc3ccccc3)c3ccnn23)C1 [Compound I-545],0.01 to 0.1 µM,
Cc1cc2c(-c3c(C)cc(C(F)(F)F)cc3O)nnc(N[C@@H]3CCCN(C)C3)n2n1 [Compound I-560],0.001 to 0.01 µM,
Cc1cc(O)c(-c2nnc(N[C@@H]3CCCN(C)C3)n3nc(C)cc23)c(F)c1 [Compound I-359],< 0.001 µM,
COc1cc(C(F)(F)F)ccc1-c1nnc(N[C@H]2CN3CCC2CC3)c2cnccc12 [Compound I-199],0.01 to 0.1 µM,
CC(C)(O)CN1CCC[C@@H](Nc2nnc(-c3ccc(C(F)(F)F)cc3C(F)(F)F)c3cccn23)C1 [Compound I-470],0.01 to 0.1 µM,
CCN1CCC[C@@H](Nc2nnc(-c3c(O)cc(C)cc3F)c3cc(C)nn23)C1 [Compound I-515],< 0.001 µM,
CN1CCC[C@@H](Nc2nnc(-c3ccc(C(F)(F)F)cc3C(F)(F)F)c3cccn23)C1 [Compound I-348],0.001 to 0.01 µM,
CN1CCC[C@H](Nc2nnc(-c3ccc(-c4ncco4)cc3O)c3ccncc23)C1 [Compound I-176],0.001 to 0.01 µM,
C[C@H](O)CNc1nnc(-c2c(O)cc(C3CC3)cc2F)c2cccn12 [Compound I-500],0.01 to 0.1 µM,
Cc1cc(O)c(-c2nnc(NC[C@@H](C)O)n3cccc23)c(F)c1 [Compound I-499],0.01 to 0.1 µM,
CCN1CCC[C@@H](Nc2nnc(-c3ccc(Br)cc3O)c3cncn23)C1 [Compound I-628],< 0.001 µM,
CN1CCCCC(Nc2nnc(-c3ccc(C(F)(F)F)cc3O)c3cnccc23)C1 (centres unmarked) [Compound I-185],0.01 to 0.1 µM,
CCN1CCC[C@@H](Nc2nnc(-c3c(O)cc(Cl)cc3F)c3cccn23)C1 [Compound I-433],< 0.001 µM,
CC(C)N1CCC[C@@H](Nc2nnc(-c3ccc(C(F)(F)F)cc3O)c3ccncc23)C1 [Compound I-295],< 0.001 µM,
CN1CCC[C@@H](Nc2nnc(-c3c(F)ccc(Cl)c3O)c3ccncc23)C1 [Compound I-209],,0.001 to 0.01 µM
Oc1cc(OC(F)(F)F)ccc1-c1nnc(N[C@@H]2CCCNC2)n2cccc12 [Compound I-365],0.01 to 0.1 µM,
CN1CCC[C@@H](Nc2nnc(-c3c(O)cc(C4CC4)cc3F)c3cccn23)C1 [Compound I-380],< 0.001 µM,
CN1CCC[C@@H](Nc2nnc(-c3ccc(-n4ccnn4)cc3O)c3ccccc23)C1 [Compound I-37],0.01 to 0.1 µM,
CN(C)C(C)(C)CNc1nnc(-c2ccc(C(F)(F)F)cc2O)c2ccncc12 [Compound I-275],0.001 to 0.01 µM,
